Tests used:
Format in all cases: functional
[1] = test system: NCI-H522; experiment: Antiproliferative activity against human NCI-H522 cells assessed as cell growth at 5 mM by SRB assay; details: read-out: Activity
[2] = test system: SF-295; experiment: Antiproliferative activity against human SF295 cells assessed as cell growth at 0.5 uM by SRB assay; details: read-out: Activity
[3] = test system: RXF 393; experiment: Antiproliferative activity against human RXF393 cells assessed as cell growth at 5 uM by SRB assay; details: read-out: Activity
[4] = test system: NCI-H522; experiment: Antiproliferative activity against human NCI-H522 cells assessed as cell growth at 5 uM by SRB assay; details: read-out: Activity
[5] = test system: UACC-62; experiment: Antiproliferative activity against human UACC62 cells assessed as cell growth at 500 uM by SRB assay; details: read-out: Activity
[6] = test system: SNB-75; experiment: Antiproliferative activity against human SNB75 cells by SRB assay
[7] = test system: OVCAR-8; experiment: Antiproliferative activity against human OVCAR8 cells assessed as cell growth at 5 uM by SRB assay; details: read-out: Activity
[8] = test system: KM12; experiment: Antiproliferative activity against human KM12 cells by SRB assay
[9] = test system: U-251; experiment: Antiproliferative activity against human U251 cells assessed as cell growth at 0.5 uM by SRB assay; details: read-out: Activity
[10] = test system: NCI-H23; experiment: Antiproliferative activity against human NCI-H23 cells assessed as cell growth at 0.5 uM by SRB assay; details: read-out: Activity
[11] = test system: EKVX; experiment: Antiproliferative activity against human EKVX cells assessed as cell growth at 5 uM by SRB assay; details: read-out: Activity
[12] = test system: CCRF-CEM; experiment: Antiproliferative activity against human CCRF-CEM cells assessed as cell growth at 500 uM by SRB assay; details: read-out: Activity
[13] = test system: CAKI-1; experiment: Antiproliferative activity against human Caki1 cells by SRB assay
[14] = test system: TK-10; experiment: Antiproliferative activity against human TK10 cells by SRB assay
[15] = test system: IGROV-1; experiment: Antiproliferative activity against human IGROV1 cells assessed as cell growth at 500 uM by SRB assay; details: read-out: Activity
[16] = test system: NCI-H522; experiment: Antiproliferative activity against human NCI-H522 cells by SRB assay
[17] = test system: NCI/ADR-RES; experiment: Antiproliferative activity against human NCI/ADR-RES cells assessed as cell growth at 50 uM by SRB assay; details: read-out: Activity
[18] = test system: SF-268; experiment: Antiproliferative activity against human SF268 cells by SRB assay
[19] = test system: NCI-H226; experiment: Antiproliferative activity against human NCI-H226 cells assessed as cell growth at 500 uM by SRB assay; details: read-out: Activity
[20] = test system: K562; experiment: Antiproliferative activity against human K562 cells assessed as cell growth at 0.5 uM by SRB assay; details: read-out: Activity
[21] = test system: SK-MEL-5; experiment: Antiproliferative activity against human SK-MEL-5 cells by SRB assay
[22] = test system: UACC-62; experiment: Antiproliferative activity against human UACC62 cells assessed as cell growth at 50 uM by SRB assay; details: read-out: Activity
[23] = test system: HCT-116; experiment: Antiproliferative activity against human HCT116 cells assessed as cell growth at 5 uM by SRB assay; details: read-out: Activity
[24] = test system: SNB-19; experiment: Antiproliferative activity against human SNB19 cells assessed as cell growth at 50 uM by SRB assay; details: read-out: Activity
[25] = test system: SK-MEL-2; experiment: Antiproliferative activity against human SK-MEL-2 cells assessed as cell growth at 5 uM by SRB assay; details: read-out: Activity
[26] = test system: OVCAR-4; experiment: Antiproliferative activity against human OVCAR4 cells assessed as cell growth at 500 uM by SRB assay; details: read-out: Activity
[27] = test system: LOX IMVI; experiment: Antiproliferative activity against human LOXIMVI cells assessed as cell growth at 50 uM by SRB assay; details: read-out: Activity
[28] = test system: HL-60(TB); experiment: Antiproliferative activity against human HL-60(TB) cells assessed as cell growth at 50 uM by SRB assay; details: read-out: Activity
[29] = test system: CAKI-1; experiment: Antiproliferative activity against human Caki1 cells assessed as cell growth at 500 uM by SRB assay; details: read-out: Activity
[30] = test system: EKVX; experiment: Antiproliferative activity against human EKVX cells assessed as cell growth at 0.5 uM by SRB assay; details: read-out: Activity
[31] = test system: NCI/ADR-RES; experiment: Antiproliferative activity against human NCI/ADR-RES cells assessed as cell growth at 5 uM by SRB assay; details: read-out: Activity
[32] = test system: NCI-H23; experiment: Antiproliferative activity against human NCI-H23 cells assessed as cell growth at 5 uM by SRB assay; details: read-out: Activity
[33] = test system: NCI-H322M; experiment: Antiproliferative activity against human NCI-H322M cells assessed as cell growth at 500 uM by SRB assay; details: read-out: Activity
[34] = test system: HCC 2998; experiment: Antiproliferative activity against human HCC2998 cells by SRB assay
[35] = test system: ACHN; experiment: Antiproliferative activity against human ACHN cells assessed as cell growth at 5 uM by SRB assay; details: read-out: Activity
[36] = test system: NCI-H226; experiment: Antiproliferative activity against human NCI-H226 cells assessed as cell growth at 50 uM by SRB assay; details: read-out: Activity
[37] = test system: DU-145; experiment: Antiproliferative activity against human DU145 cells assessed as cell growth at 5 uM by SRB assay; details: read-out: Activity
[38] = test system: OVCAR-5; experiment: Antiproliferative activity against human OVCAR5 cells by SRB assay
[39] = test system: HT-29; experiment: Antiproliferative activity against human HT-29 cells assessed as cell growth at 5 uM by SRB assay; details: read-out: Activity
[40] = test system: UO-31; experiment: Antiproliferative activity against human UO31 cells assessed as cell growth at 0.5 uM by SRB assay; details: read-out: Activity
[41] = read-out: LC50 (the source's name)
[42] = read-out: pLC50 (the source's name) (converted)

## O=C(/C=C/c1ccc(O)c(O)c1)OCCc1ccc(O)c(O)c1
[1]
  growth at 5000 µM: -30%
[2]
  growth at 0.5 µM: 98%
[3]
  growth at 5 µM: 84%
[4]
  growth at 5 µM: 89%
[5]
  growth at 500 µM: 52%
[6]; read-out: GI50
  GI50: 9.5 µM
[6]; [41]
  CC50: > 50 µM
[6]; read-out: TGI
  TGI: > 50 µM
[6]; read-out: pGI50 (converted)
  GI50: 9.55 µM
[6]; [42]
  CC50: > 50.1 µM
[6]; read-out: pTGI
  TGI: > 50.1 µM
[7]
  growth at 5 µM: 79%
[8]; read-out: GI50
  GI50: 7.92 µM
[8]; [41]
  CC50: > 50 µM
[8]; read-out: TGI
  TGI: > 50 µM
[8]; read-out: pGI50 (converted)
  GI50: 7.94 µM
[8]; [42]
  CC50: > 50.1 µM
[8]; read-out: pTGI
  TGI: > 50.1 µM
[9]
  growth at 0.5 µM: 102%
[10]
  growth at 0.5 µM: 90%
[11]
  growth at 5 µM: 84%
[12]
  growth at 500 µM: 1%
[13]; read-out: GI50
  GI50: 10.6 µM
[13]; [41]
  CC50: > 50 µM
[13]; read-out: TGI
  TGI: > 50 µM
[13]; read-out: pGI50 (converted)
  GI50: 10.5 µM
[13]; [42]
  CC50: > 50.1 µM
[13]; read-out: pTGI
  TGI: > 50.1 µM
[14]; read-out: GI50
  GI50: 28.1 µM
[14]; [41]
  CC50: > 50 µM
[14]; read-out: TGI
  TGI: > 50 µM
[14]; read-out: pGI50 (converted)
  GI50: 28.2 µM
[14]; [42]
  CC50: > 50.1 µM
[14]; read-out: pTGI
  TGI: > 50.1 µM
[15]
  growth at 500 µM: 35%
[16]; read-out: GI50
  GI50: 1.26 µM
[16]; [41]
  CC50: > 50 µM
[16]; read-out: TGI
  TGI: 8.61 µM
[16]; read-out: pGI50 (converted)
  GI50: 1.26 µM
[16]; [42]
  CC50: > 50.1 µM
[16]; read-out: pTGI (converted)
  TGI: 8.91 µM
[17]
  growth at 50 µM: 99%
[18]; read-out: GI50
  GI50: 6.93 µM
[18]; [41]
  CC50: > 50 µM
[18]; read-out: TGI
  TGI: > 50 µM
[18]; read-out: pGI50 (converted)
  GI50: 6.61 µM
[18]; [42]
  CC50: > 50.1 µM
[18]; read-out: pTGI
  TGI: > 50.1 µM
[19]
  growth at 500 µM: 79%
[20]
  growth at 0.5 µM: 107%
[21]; read-out: GI50
  GI50: 8.12 µM
[21]; [41]
  CC50: > 50 µM
[21]; read-out: TGI
  TGI: 47.7 µM
[21]; read-out: pGI50 (converted)
  GI50: 8.13 µM
[21]; [42]
  CC50: > 50.1 µM
[21]; read-out: pTGI (converted)
  TGI: 47.9 µM
[22]
  growth at 50 µM: 84%
[23]
  growth at 5 µM: 97%
[24]
  growth at 50 µM: 94%
[25]
  growth at 5 µM: 95%
[26]
  growth at 500 µM: 58%
[27]
  growth at 50 µM: 98%
[28]
  growth at 50 µM: 82%
[29]
  growth at 500 µM: 68%
[30]
  growth at 0.5 µM: 88%
[31]
  growth at 5 µM: 98%
[32]
  growth at 5 µM: 95%
[33]
  growth at 500 µM: 86%
[34]; read-out: GI50
  GI50: 14.6 µM
[34]; [41]
  CC50: > 50 µM
[34]; read-out: TGI
  TGI: > 50 µM
[34]; read-out: pGI50 (converted)
  GI50: 14.5 µM
[34]; [42]
  CC50: > 50.1 µM
[34]; read-out: pTGI
  TGI: > 50.1 µM
[35]
  growth at 5 µM: 95%
[36]
  growth at 50 µM: 90%
[37]
  growth at 5 µM: 101%
[38]; read-out: GI50
  GI50: > 50 µM
[38]; [41]
  CC50: > 50 µM
[38]; read-out: TGI
  TGI: > 50 µM
[38]; read-out: pGI50 (converted)
  GI50: > 50.1 µM
[38]; [42]
  CC50: > 50.1 µM
[38]; read-out: pTGI
  TGI: > 50.1 µM
[39]
  growth at 5 µM: 103%
[40]
  growth at 0.5 µM: 98%
